Source: US20220031845A1, “DILUENTS FOR COMPOSITIONS OF CANNABINOIDS AND USES THEREOF” (KANABO RESEARCH LTD., priority 2019, published 2022)

Key:
[1] = Stability of oversaturated CBD blend to crystallization; type: physicochemical; parameters: key: +: crystallization; −: no crystallization; conditions: one week at 10 or 22° C.
Method: Vials were prepared with 5 ml of oversaturated blend of CBD with different diluent. The blend was composed of CBD distilled oil (containing 90% CBD and less than 1% bisabolol) or CBD isolate (more than 99% CBD), and natural bisabolol and phytol. The stability of the solution to crystallization in the vial after a week of storage at either 10 or 22° C. is presented in Table 7.

[2] = Crystallization of CBD blends with different diluents after addition of crystal seed; type: physicochemical; parameters: key to crystallization of CBD: +: crystallization; −: no crystallization; conditions: for crystallization of CBD: 1% flavor, crystal seed, 22° C., one week; for concentration of CBD stabilized in the composition: at the diluent concentration that prevents crystallization
Method: 5 g of the following different blends were prepared. The blends contained a CBD distillate containing 92% of CBD, a diluent at different concentrations and 1% natural flavor (Girl School cookies from Floraplex—USA). The diluent was phytol, natural bisabolol or a combination of phytol and natural bisabolol. 2 mg of crystal seed were added to the vial to initiate crystallization. The vials were stored at 22° C. The vials were checked after a week to see if there is crystallization.

[3] = 28% diluent in blend, CBD distillate 92% CBD
[4] = 32% diluent in blend, CBD distillate 92% CBD
[5] = 36% diluent in blend, CBD distillate 92% CBD

SMILES	Crystallization ([1]; CBD 90% distilled oil, 5% diluent in blend)	Crystallization ([1]; CBD 90% distilled oil, 10% diluent in blend)	Crystallization ([1]; CBD 90% distilled oil, 20% diluent in blend)	Crystallization ([1]; CBD isolate, 10% diluent in blend)	Crystallization ([1]; CBD isolate, 20% diluent in blend)	crystallization of CBD [2, 3]	crystallization of CBD [2, 4]	crystallization of CBD [2, 5]	concentration of CBD stabilized in the composition [2]	Crystallization ([1]; CBD 90% distilled oil, 15% diluent in blend)	crystallization of CBD ([2]; 40% diluent in blend, CBD distillate 92% CBD)	crystallization of CBD ([2]; 44% diluent in blend, CBD distillate 92% CBD)	concentration of diluent required to prevent crystallization ([2]; upon addition of crystallization seeds, CBD distillate 92% CBD)
CC(C)=CCC[C@](C)(O)C1CC=C(C)CC1 (stereo partly drawn) [Bisabolol, α-(−)-bisabolol]	−	−	−	+	−	+	−	−	up to 65%				
C/C(=C\CO)CCC[C@H](C)CCC[C@H](C)CCCC(C)C [Phytol, phytol]						+	+	+	about 50%	+	+	−	about 44%
